Laboratory results as given in article PMC9046087, “Structural basis of tethered agonism of the adhesion GPCRs ADGRD1 and ADGRF1” (Nature, 2022).
Where a chain is given by its changes, count along the chain named. Ends that are not written are not given here.

Tests used:
Test in all cases: BRET assay using TRUPATH biosensors, Gi activation of ADGRF1
Assay type in all cases: cell-based
[1] = target: T1, ADGRF1 (Homo sapiens, UniProt Q5T601, P798A); conditions: ADGRF1 P798^6.47bA
T1 construct: Flag (N); expressed in transfected cells; host or cells: HEK293F
T1 sequence (Q5T601 20-910 P798A): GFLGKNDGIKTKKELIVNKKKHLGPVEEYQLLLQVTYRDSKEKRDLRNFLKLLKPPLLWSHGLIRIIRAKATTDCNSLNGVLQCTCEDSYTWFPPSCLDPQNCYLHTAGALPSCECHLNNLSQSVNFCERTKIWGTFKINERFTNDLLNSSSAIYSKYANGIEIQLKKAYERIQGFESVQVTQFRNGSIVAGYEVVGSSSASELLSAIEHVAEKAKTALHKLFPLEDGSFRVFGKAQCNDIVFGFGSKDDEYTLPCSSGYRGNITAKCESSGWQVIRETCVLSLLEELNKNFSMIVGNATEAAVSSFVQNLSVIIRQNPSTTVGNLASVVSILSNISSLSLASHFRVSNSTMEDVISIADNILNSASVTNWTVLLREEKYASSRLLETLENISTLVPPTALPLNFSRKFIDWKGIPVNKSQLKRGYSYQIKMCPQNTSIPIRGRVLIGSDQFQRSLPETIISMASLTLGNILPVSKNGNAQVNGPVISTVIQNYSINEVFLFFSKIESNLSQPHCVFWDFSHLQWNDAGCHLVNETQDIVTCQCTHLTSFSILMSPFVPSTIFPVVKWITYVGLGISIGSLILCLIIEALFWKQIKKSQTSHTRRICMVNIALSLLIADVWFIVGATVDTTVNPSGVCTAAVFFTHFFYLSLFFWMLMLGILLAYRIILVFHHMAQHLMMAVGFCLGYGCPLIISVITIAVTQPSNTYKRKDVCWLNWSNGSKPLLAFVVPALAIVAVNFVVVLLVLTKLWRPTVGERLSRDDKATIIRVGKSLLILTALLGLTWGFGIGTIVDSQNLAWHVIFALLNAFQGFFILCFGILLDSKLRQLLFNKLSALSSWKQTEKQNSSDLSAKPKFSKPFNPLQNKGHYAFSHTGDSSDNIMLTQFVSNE
Experimental: (§1) To study the synthetic stalk peptide-induced G protein activation of ADGRD1 and ADGRF1, a BRET assay using TRUPATH biosensors was conducted to measure the proximal interaction between RLuc8 fused to the Gα subunit and GFP2 fused to the Gγ subunit. The TRUPATH suite of biosensors was obtained from Addgene (Addgene kit no. 1000000163) as a gift from B. Roth, including GαsS-RLuc8, Gαi1-RLuc8, Gβ3 and Gγ9-GFP2 as previously described.
(§2) The wild-type or mutant ADGRD1 and ADGRF1 were transiently co-transfected with plasmids encoding Gα-RLuc8 (GαsS-RLuc8 for Gs activation assay; Gαi1-RLuc8 for Gi activation assay), Gβ3 and Gγ9-GFP2 at a ratio of 2:1:1:1 (receptor plasmid, 800 ng; G protein subunit plasmids, 400 ng for each) in 2 ml HEK293F cells at a density of 1.2 × 10^6 cells per ml. Cell cultivation and receptor surface expression measurement were performed as described above. The cells were plated into 96-well white plates (40,000 cells per well) in 60 μl of assay buffer and incubated at 37 °C for 30 min. Then 10 μl of freshly prepared 50 μM coelenterazine 400a (Nanolight Technologies) was added. […] The cells were stimulated with 30 μl of synthetic stalk peptide at different concentrations and the BRET signals were monitored continuously five times. The last measurements were used in data analysis. The BRET ratios were calculated as the ratio of the GFP2 emission to RLuc8 emission.

[2] = target: T2, ADGRF1 (Homo sapiens, UniProt Q5T601, V585A); conditions: ADGRF1 V585^1.36bA
T2 construct: Flag (N); expressed in transfected cells; host or cells: HEK293F
T2 sequence (Q5T601 20-910 V585A): as the sequence (Q5T601 20-910 P798A) above, with V566A, A779P counted along it
Experimental: as §1, §2

[3] = target: T3, ADGRF1 (Homo sapiens, UniProt Q5T601, V748A); conditions: ADGRF1 V748^5.40bA
T3 construct: Flag (N); expressed in transfected cells; host or cells: HEK293F
T3 sequence (Q5T601 20-910 V748A): as the sequence (Q5T601 20-910 P798A) above, with V729A, A779P counted along it
Experimental: as §1, §2

[4] = target: T4, ADGRF1 (Homo sapiens, UniProt Q5T601, G831A); conditions: ADGRF1 G831^7.50bA, n = 3
T4 construct: Flag (N); expressed in transfected cells; host or cells: HEK293F
T4 sequence (Q5T601 20-910 G831A): as the sequence (Q5T601 20-910 P798A) above, with A779P, G812A counted along it
Experimental: as §1, §2

[5] = target: T5, ADGRF1 (Homo sapiens, UniProt Q5T601, F690A); conditions: ADGRF1 F690^ICL2A
T5 construct: Flag (N); expressed in transfected cells; host or cells: HEK293F
T5 sequence (Q5T601 20-910 F690A): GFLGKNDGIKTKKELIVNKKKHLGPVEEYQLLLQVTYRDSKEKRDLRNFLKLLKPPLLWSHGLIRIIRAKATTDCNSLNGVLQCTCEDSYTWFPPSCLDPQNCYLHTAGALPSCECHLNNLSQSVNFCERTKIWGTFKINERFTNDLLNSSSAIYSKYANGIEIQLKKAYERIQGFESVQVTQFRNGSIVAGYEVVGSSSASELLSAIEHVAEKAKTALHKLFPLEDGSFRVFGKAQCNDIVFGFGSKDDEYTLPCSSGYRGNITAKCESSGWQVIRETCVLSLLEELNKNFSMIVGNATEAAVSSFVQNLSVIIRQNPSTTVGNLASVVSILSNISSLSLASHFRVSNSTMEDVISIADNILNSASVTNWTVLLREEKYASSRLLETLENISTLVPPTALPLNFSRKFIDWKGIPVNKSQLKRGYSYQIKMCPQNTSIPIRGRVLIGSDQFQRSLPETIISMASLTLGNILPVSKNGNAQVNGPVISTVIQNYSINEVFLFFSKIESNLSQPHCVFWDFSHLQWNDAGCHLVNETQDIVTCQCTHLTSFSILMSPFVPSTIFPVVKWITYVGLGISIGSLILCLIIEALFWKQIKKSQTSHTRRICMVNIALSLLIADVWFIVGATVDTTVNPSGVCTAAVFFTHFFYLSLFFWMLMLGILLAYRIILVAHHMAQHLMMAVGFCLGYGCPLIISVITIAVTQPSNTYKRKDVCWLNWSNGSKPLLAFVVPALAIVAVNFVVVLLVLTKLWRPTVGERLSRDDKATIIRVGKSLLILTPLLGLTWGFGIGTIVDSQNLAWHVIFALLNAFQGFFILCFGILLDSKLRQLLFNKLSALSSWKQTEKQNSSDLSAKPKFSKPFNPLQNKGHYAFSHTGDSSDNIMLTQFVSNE
Experimental: as §1, §2

[6] = target: T6, ADGRF1 (Homo sapiens, UniProt Q5T601, L769A); conditions: ADGRF1 L769^5.61bA
T6 construct: Flag (N); expressed in transfected cells; host or cells: HEK293F
T6 sequence (Q5T601 20-910 L769A): T5 sequence (Q5T601 20-910 F690A) with A671F, L750A
Experimental: as §1, §2

[7] = target: T7, ADGRF1 (Homo sapiens, UniProt Q5T601, V761A); conditions: ADGRF1 V761^5.53bA, n = 3
T7 construct: Flag (N); expressed in transfected cells; host or cells: HEK293F
T7 sequence (Q5T601 20-910 V761A): as the sequence (Q5T601 20-910 P798A) above, with V742A, A779P counted along it
Experimental: as §1, §2

[8] = n = 3, read-out: pEC50 (mean ± s.e.m.) (converted)

Emax (mean ± s.e.m.) ([1]; n = 3): 94 ± 17 % of WT
EC50 [1, 8]: 912 nM
Emax (mean ± s.e.m.) ([2]; n = 3): 84 ± 8 % of WT
EC50 [2, 8]: 437 nM
Emax (mean ± s.e.m.) ([3]; n = 3): 85 ± 17 % of WT
EC50 [3, 8]: 56.2 nM
EC50 [4]: 1040 nM
Emax (mean ± s.e.m.) [4]: 97 ± 15 % of WT
Emax (mean ± s.e.m.) ([5]; n = 3): 94 ± 15 % of WT
EC50 [5, 8]: 79.4 nM
Emax (mean ± s.e.m.) ([6]; n = 3): 102 ± 12 % of WT
EC50 [6, 8]: 302 nM
EC50 [7]: 1620 nM
Emax (mean ± s.e.m.) [7]: 124 ± 22 % of WT
Sequence: TSFSILMSPFVP [pF1]
